Test results: PMC10739574 (Bioconjugate Chemistry, 2023)
One block for each molecule: values may come before it.

Target: Recombinant FKBP12 (Homo sapiens, UniProt P62942)
Test: Pure protein target engagement assay
Format: binding

Recombinant FKBP12, sequence (P62942 whole entry): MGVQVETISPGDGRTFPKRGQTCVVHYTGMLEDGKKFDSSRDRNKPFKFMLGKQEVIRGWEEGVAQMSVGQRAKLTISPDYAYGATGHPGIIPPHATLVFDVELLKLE

Fluorescent intensity of the bands (crude probes 10 µM, comparison): brighter than crude 3
Compound: C#CCCC1(CC[C@H](NC(=O)NCCCCCCNC(=O)NCCNC(=O)COc2cccc([C@@H](CCc3ccc(OC)c(OC)c3)OC(=O)[C@H]3CCCN3C(=O)C(=O)C(C)(C)CC)c2)C(N)=O)N=N1.O=C(O)C(F)(F)F [Compound 6]

Labeling of FKBP12 in dilution series (8-point, 5-fold dilution series, UV irradiated): Dose-dependent labeling
Compound: C#CCCC1(CC[C@H](NC(=O)NCCCCCCNC(=O)NCCNC(=O)COc2cccc([C@@H](CCc3ccc(OC)c(OC)c3)OC(=O)[C@@H]3CCCCN3C(=O)C(=O)C(C)(C)CC)c2)C(N)=O)N=N1.O=C(O)C(F)(F)F [Compound 3]

Compound: CO[C@H]1C[C@@H]2CC[C@@H](C)[C@@](O)(O2)C(=O)C(=O)N2CCCC[C@H]2C(=O)O[C@H]([C@H](C)C[C@@H]2CC[C@@H](O)[C@H](OC)C2)CC(=O)[C@H](C)/C=C(\C)[C@@H](O)[C@@H](OC)C(=O)[C@H](C)C[C@H](C)/C=C/C=C/C=C/1C [rapamycin, reference compound]
Competition of PAL probe interaction with FKBP12 (rapamycin 10 µM pretreatment, purified and crude probes 10 µM): prevented interaction with the PAL probes

Nonspecific labeling of FKBP12 (crude linker, 10 and 40 µM, negative control): not seen
Compound: C#CCCC1(CC[C@H](NC(=O)NCCCCCCNC(=O)NCCN)C(N)=O)N=N1 [Compound 7, (S)-16-amino-2-(2-(3-(but-3-yn-1-yl)-3H-diazirin-3-yl)ethyl)-4,13-dioxo-3,5,12,14-tetraazahexadecanamide]
